Test [1] has as its system Beet Armyworm (Spodoptera exigua, LAPHEG). The test is described as follows: Bioassays on Beet Armyworm (BAW), 128-well diet tray assay. The test is classed as in vivo. The note with it: Spodoptera exigua. In a few lines:
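Eight diet wells per compound were treated at 50 μg/cm^2 (acetone-water 90:10), dried, then infested with 1–5 second-instar larvae each. After five to seven days at 25 °C under 14:10 photoperiod, mortality was scored and averaged across wells.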

Test [2] deals with Cabbage Looper (Trichoplusia ni, TRIPNI). Kind of test: Bioassays on Cabbage Looper (CL), 128-well diet tray assay. It is filed as in vivo. The note with it: Trichoplusia ni. The gist of the method:
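Each of eight wells receives artificial diet treated at 50 μg/cm^2 with the test molecule, then one to five second-instar larvae. Incubation runs five to seven days at 25° C with a 14:10 light-dark cycle under vented covers. Mortality is scored per well as a percentage and averaged.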

Setting [3] is: Beet Armyworm, Table ABC / ABC-DP rating, read-out: BAW rating.
[4] abbreviates: Cabbage Looper, Table ABC / ABC-DP rating, read-out: CL rating.
Where [5] appears, read: Table ABC: Biological Results, species BAW, read-out: BAW.
Setting [6] is: Table ABC: Biological Results, species CL, read-out: CL.
Setting [7] is: Beet Armyworm, rating class, read-out: BAW.
Where [8] appears, read: Cabbage Looper, rating class, read-out: CL.

Pest or weed control data for 20 compounds are collected here from patent US20250228239A1, “MOLECULES HAVING PESTICIDAL UTILITY, AND INTERMEDIATES, COMPOSITIONS, AND PROCESSES, RELATED THERETO” (priority 2024, published 2025).

Read-outs that look alike come from different tables or passages of the source.

For `CC(=O)C1(C(=O)Nc2c(F)ccc(NC(=O)c3cc(NC(=O)[C@H]4[C@H](c5ccc(F)c(C(F)(F)F)c5)C4(Cl)Cl)ccc3Cl)c2F)CC1` [F1850, N-(3-(1-Acetylcyclopropane-1-carboxamido)-2,4-difluorophenyl)-2-chloro-5-((1R,3R)-2,2-dichloro-3-(4-fluoro-3-(trifluoromethyl)phenyl)cyclopropane-1-carboxamido)benzamide], the pest or weed control at 50 µg/cm2 in test [1] (setting [3]) and in test [2] (setting [4]) was 50 to 100% throughout.
Regarding `Nc1ccc(F)c(NC(=O)c2cc(NC(=O)[C@H]3[C@H](c4ccc(Cl)c(Cl)c4)C3(Cl)Cl)cc(F)c2Cl)c1F` [F1338, N-(3-Amino-2,6-difluorophenyl)-2-chloro-5-((1R,3R)-2,2-dichloro-3-(3,4-dichlorophenyl)cyclopropane-1-carboxamido)-3-fluorobenzamide], the pest or weed control at 50 µg/cm2 in test [1] (setting [5]) and in test [2] (setting [6]) was 50 to 100% each time.
For `O=C(Nc1ccc(F)c(NC(=O)C(F)(F)F)c1F)c1cc(NC(=O)[C@H]2[C@H](c3ccc(F)c(C(F)(F)F)c3)C2(Cl)Cl)cc(F)c1Cl` [F1290, 2-Chloro-5-((1R,3R)-2,2-dichloro-3-(4-fluoro-3-(trifluoromethyl)phenyl)cyclopropane-1-carboxamido)-N-(2,4-difluoro-3-(2,2,2-trifluoroacetamido)phenyl)-3-fluorobenzamide], the pest or weed control at 50 µg/cm2 in test [1] (setting [5]) and in test [2] (setting [6]) was 50 to 100% throughout.
`Nc1c(F)ccc(NC(=O)c2cc(NC(=O)[C@H]3[C@@H](c4cc(Cl)cc(S(F)(F)(F)(F)F)c4)C3(Cl)Cl)ccc2Cl)c1F` (relative stereo) [F1260, cis-N-(3-Amino-2,4-difluorophenyl)-2-chloro-5-(2,2-dichloro-3-(3-chloro-5-(pentafluoro-λ^6-sulfanyl)phenyl)cyclopropane-1-carboxamido)benzamide]: the pest or weed control at 50 µg/cm2 in test [1] (setting [5]) and in test [2] (setting [6]) was 50 to 100% in each case.
Take `CN(C(=O)c1cc(NC(=O)[C@H]2[C@H](c3ccc(Cl)c(Cl)c3)C2(Cl)Cl)ccc1Cl)c1ccc(F)c(N)c1F` [F1056, N-(3-Amino-2,4-difluorophenyl)-2-chloro-5-((1R,3R)-2,2-dichloro-3-(3,4-dichlorophenyl)cyclopropane-1-carboxamido)-N-methylbenzamide]: the pest or weed control at 50 µg/cm2 in test [1] (setting [5]) and in test [2] (setting [6]) was 50 to 100% each time.
On to `Cc1cc(NC(=O)[C@H]2[C@H](c3cc(Cl)c(Cl)c(Cl)c3)C2(Cl)Cl)cc(C(=O)Nc2cc(NC(=O)C(F)F)c(F)cc2F)c1Cl` [F1498, 2-Chloro-5-((1R,3R)-2,2-dichloro-3-(3,4,5-trichlorophenyl)cyclopropane-1-carboxamido)-N-(5-(2,2-difluoroacetamido)-2,4-difluorophenyl)-3-methylbenzamide], for which the pest or weed control at 50 µg/cm2 in test [1] (setting [7]) and in test [2] (setting [8]) was 50 to 100% throughout.
As to `O=C(Nc1ccc(F)c(NC(=O)C(F)(F)F)c1F)c1cc(NC(=O)[C@H]2[C@H](c3cc(Cl)cc(Cl)c3)C2(Cl)Cl)cc(F)c1Cl` [F1330, 2-Chloro-5-((1R,3R)-2,2-dichloro-3-(3,5-dichlorophenyl)cyclopropane-1-carboxamido)-N-(2,4-difluoro-3-(2,2,2-trifluoroacetamido)phenyl)-3-fluorobenzamide], the pest or weed control at 50 µg/cm2 in test [1] (setting [5]) and in test [2] (setting [6]) was 50 to 100% in each case.
For `CC(=O)Nc1c(F)ccc(NC(=O)c2cc(NC(=O)[C@H]3[C@H](c4cc(Cl)c(Cl)c(Cl)c4)C3(Cl)Cl)cc(F)c2Cl)c1F` [F1504, N-(3-Acetamido-2,4-difluorophenyl)-2-chloro-5-((1R,3R)-2,2-dichloro-3-(3,4,5-trichlorophenyl)cyclopropane-1-carboxamido)-3-fluorobenzamide], the pest or weed control at 50 µg/cm2 in test [1] (setting [7]) and in test [2] (setting [8]) was 50 to 100% throughout.
For `CC(=O)Nc1ccc(F)c(NC(=O)c2cc(NC(=O)[C@H]3[C@H](c4ccc(F)c(C(F)(F)F)c4)C3(Cl)Cl)cc(C)c2Cl)c1F` [F1525, N-(3-Acetamido-2,6-difluorophenyl)-2-chloro-5-((1R,3R)-2,2-dichloro-3-(4-fluoro-3-(trifluoromethyl)phenyl)cyclopropane-1-carboxamido)-3-methylbenzamide], the pest or weed control at 50 µg/cm2 in test [1] (setting [7]) and in test [2] (setting [8]) was 50 to 100% each time.
Consider `O=C(Nc1ccc(F)c(NS(=O)(=O)CCC(F)(F)F)c1F)c1cc(NC(=O)[C@H]2[C@H](c3ccc(F)c(C(F)(F)F)c3)C2(Cl)Cl)ccc1Cl` [F1350, 2-Chloro-5-((1R,3R)-2,2-dichloro-3-(4-fluoro-3-(trifluoromethyl)phenyl)cyclopropane-1-carboxamido)-N-(2,4-difluoro-3-((3,3,3-trifluoropropyl)sulfonamido)phenyl)benzamide], for which the pest or weed control at 50 µg/cm2 in test [1] (setting [5]) and in test [2] (setting [6]) was 50 to 100% throughout.
With `O=C(COC(F)(F)F)Nc1ccc(F)c(NC(=O)c2cc(NC(=O)[C@H]3[C@H](c4cc(Cl)c(Cl)c(Cl)c4)C3(Cl)Cl)cc(F)c2F)c1F` [F1777, 5-((1R,3R)-2,2-Dichloro-3-(3,4,5-trichlorophenyl)cyclopropane-1-carboxamido)-N-(2,6-difluoro-3-(2-(trifluoromethoxy)acetamido)phenyl)-2,3-difluorobenzamide], the pest or weed control at 50 µg/cm2 in test [1] (setting [3]) and in test [2] (setting [4]) was 50 to 100% in each case.
For `O=C(Nc1cc(NC(=O)C(F)(F)F)c(F)cc1F)c1cc(NC(=O)[C@H]2[C@H](c3cc(Cl)c(Cl)c(Cl)c3)C2(Cl)Cl)cc(F)c1Cl` [F1405, 2-Chloro-5-((1R,3R)-2,2-dichloro-3-(3,4,5-trichlorophenyl)cyclopropane-1-carboxamido)-N-(2,4-difluoro-5-(2,2,2-trifluoroacetamido)phenyl)-3-fluorobenzamide], the pest or weed control at 50 µg/cm2 in test [1] (setting [7]) and in test [2] (setting [8]) was 50 to 100% in each case.
`O=C(Nc1cc(NC(=O)C(F)(F)F)ccc1F)c1cc(NC(=O)[C@H]2[C@H](c3cc(Cl)cc(Cl)c3)C2(Cl)Cl)ccc1Cl` (relative stereo) [F1640, trans-2-Chloro-5-(2,2-dichloro-3-(3,5-dichlorophenyl)cyclopropane-1-carboxamido)-N-(2-fluoro-5-(2,2,2-trifluoroacetamido)phenyl)benzamide]: the pest or weed control at 50 µg/cm2 in test [1] (setting [7]) and in test [2] (setting [8]) was 50 to 100% throughout.
As to `CCNC(=O)c1cc(NC(=O)[C@H]2[C@H](c3ccc(F)c(Cl)c3)C2(Cl)Cl)cc(C(F)(F)F)c1Cl` (relative stereo) [F2053, trans-2-Chloro-5-(2,2-dichloro-3-(3-chloro-4-fluorophenyl)cyclopropane-1-carboxamido)-N-ethyl-3-(trifluoromethyl)benzamide], the pest or weed control at 50 µg/cm2 in test [1] (setting [3]) and in test [2] (setting [4]) was 50 to 100% in each case.
For the compound `O=C(NCC(F)(F)F)c1cc(NC(=O)[C@H]2[C@H](c3ccc(F)c(Cl)c3)C2(Cl)Cl)cc(F)c1Cl` (relative stereo) [F2034, trans-2-Chloro-5-(2,2-dichloro-3-(3-chloro-4-fluorophenyl)cyclopropane-1-carboxamido)-3-fluoro-N-(2,2,2-trifluoroethyl)benzamide], the pest or weed control at 50 µg/cm2 in test [1] (setting [3]) and in test [2] (setting [4]) was 50 to 100% throughout.
On to `O=C(Nc1cc(NC(=O)C(F)(F)C(F)F)c(F)cc1F)c1cc(NC(=O)[C@H]2[C@H](c3ccc(F)c(C(F)(F)F)c3)C2(Cl)Cl)ccc1Cl` [F1569, 2-Chloro-5-((1R,3R)-2,2-dichloro-3-(4-fluoro-3-(trifluoromethyl)phenyl)cyclopropane-1-carboxamido)-N-(2,4-difluoro-5-(2,2,3,3-tetrafluoropropanamido)phenyl)benzamide], for which the pest or weed control at 50 µg/cm2 in test [1] (setting [7]) and in test [2] (setting [8]) was 50 to 100% in each case.
For the compound `CC(=O)Nc1ccc(F)c(NC(=O)c2cc(NC(=O)[C@H]3[C@H](c4cc(Cl)c(Cl)c(Cl)c4)C3(Cl)Cl)cc(F)c2F)c1F` [F1590, N-(3-Acetamido-2,6-difluorophenyl)-5-((1R,3R)-2,2-dichloro-3-(3,4,5-trichlorophenyl)cyclopropane-1-carboxamido)-2,3-difluorobenzamide], the pest or weed control at 50 µg/cm2 in test [1] (setting [7]) and in test [2] (setting [8]) was 50 to 100% in each case.
With `Cc1cc(NC(=O)[C@H]2[C@H](c3cc(Cl)c(Cl)c(Cl)c3)C2(Cl)Cl)cc(C(=O)Nc2c(F)ccc(NC(=O)C(F)(F)F)c2F)c1Cl` [F1432, 2-Chloro-5-((1R,3R)-2,2-dichloro-3-(3,4,5-trichlorophenyl)cyclopropane-1-carboxamido)-N-(2,6-difluoro-3-(2,2,2-trifluoroacetamido)phenyl)-3-methylbenzamide], the pest or weed control at 50 µg/cm2 in test [1] (setting [7]) and in test [2] (setting [8]) was 50 to 100% throughout.
For the compound `Cc1cc(NC(=O)[C@H]2[C@H](c3ccc(Cl)c(Cl)c3)C2(Cl)Cl)cc(C(=O)Nc2cc(N)c(F)cc2F)c1Cl` [F1470, N-(5-Amino-2,4-difluorophenyl)-2-chloro-5-((1R,3R)-2,2-dichloro-3-(3,4-dichlorophenyl)cyclopropane-1-carboxamido)-3-methylbenzamide], the pest or weed control at 50 µg/cm2 in test [1] (setting [7]) and in test [2] (setting [8]) was 50 to 100% throughout.
For `C=CCN(C(=O)c1cc(NC(=O)[C@H]2[C@H](c3cc(Cl)cc(Cl)c3)C2(Cl)Cl)ccc1Cl)c1ccc(F)cc1C#N` (relative stereo) [F1055, trans-N-Allyl-2-chloro-N-(2-cyano-4-fluorophenyl)-5-(2,2-dichloro-3-(3,5-dichlorophenyl)cyclopropane-1-carboxamido)benzamide], the pest or weed control at 50 µg/cm2 in test [1] (setting [5]) and in test [2] (setting [6]) was 50 to 100% throughout.
